From patent US20060134213A1 (priority 2004, published 2006)

Experiment: Clinical single-dose crossover study: relative bioavailability and dose proportionality from plasma ramipril and ramiprilat, tablets vs ALTACE capsules
Format: in vivo, human
[1] = doses increased from 2.5 to 20 mg

increase of AUC0-24 with dose (geometric means) [1]: proportional | increase of Cmax with dose (geometric means) [1]: more than proportional increase | increase of AUC0-t and AUC0-48 with dose (geometric means) (ramipril doses 2.5 to 20 mg): less than proportional increase
SMILES: C[C@H](N[C@@H](CCc1ccccc1)C(=O)O)C(=O)N1[C@H](C(=O)O)C[C@@H]2CCC[C@@H]21 [ramiprilat]
